Our source for the IC50 values is patent EP1137645B1, “ALPHA-METHYLBENZYL-CONTAINING THIOUREA INHIBITORS OF HERPES VIRUSES CONTAINING A […] GROUP” (Wyeth, priority 1998, dated 2000).

Assay [1] relates to HCMV recombinant mutant virus whose genome contains the prokaryotic beta-glucuronidase gene. As to the kind of experiment: microbe, parasite or virus in culture. The class given is cell-based, human cytomegalovirus. The following applies: Human betaherpesvirus 5, Fibroblast. The text has this: Microtiter plate assay. Ninety-six well plate cultures of human foreskin fibroblasts are infected in the presence of inhibitor compound with a HCMV recombinant mutant virus whose genome contains the prokaryotic beta-glucuronidase gene (Jefferson, R. A., S. M. Burgess, and D. Hirsh. 1986. Beta-glucuronidase from Escherichia coli as a gene fusion marker. Proc. Natl. Acad. Sci. USA 83:8447-8451) whose expression is controlled by a viral promoter. An example of such a virus is RV145 (Jones, T. R., V. P. Muzithras, and Y. Gluzman. 1991. Replacement mutagenesis of the human cytomegalovirus genome: US10 and US11 gene products are nonessential. J. Virol. 65:5860-5872). Since it is under the control of a viral promoter, beta-glucuronidase expression is an indirect indicator of growth and replication of HCMV in this assay. At 96 hours post-infection, the infected cell lysates are prepared (using 50mM sodium phosphate [pH7.0] containing 0.1% Triton X-100 and 0.1% sarkosyl) and assayed for beta-glucuronidase activity using a substrate for the enzyme which when cleaved yields either a product which can be measured colorimetrically in a spectrophotometer or fluorescently in a microfluorimeter. Examples of such substrates are p-nitrophenyl-beta-D-glucuronide and methylumbelliferylglucuronide, respectively. The presence of an antiviral compound is indicated by the reduced expression of the HCMV genome resident beta-glucuronidase gene, compared to the absence of inhibitor. […] Data from this assay generated using varying amounts of inhibitor compound is also used to estimate the IC50 of an inhibitor compound.

The test system of assay [2] is HSV- I. Briefly: HSV antiviral (ELISA) assay. The class given is cell-based. Particulars: read-out: IC50 (ug/ml) HSV. The method, then: Vero cells (ATCC #CCL-81) are plated on 96-well tissue culture plates at 3.5x10^4 cells per 100µl tissue culture DMEM (Dulbecco's modified Eagle media) supplemented with 2% fetal bovine serum (FBS) in each well. After overnight incubation @ 37°C (in 5% CO2) and 30 minutes prior to infection with HSV- I (multiplicity of infection equal to 0.006), cells are either untreated, or treated with test compound (multiple concentrations) or reference standard drug control. After approximately 24 hours post-infection incubation @ 37°C (in 5% CO2), cells are fixed for ELISA assay. The primary antibody is murine anti-HSV glycoprotein D monoclonal primary antibody and the secondary antibody is goat anti-mouse IgG linked to β-galactosidase. Thus the extent of viral replication is determined by assessing β-galactosidase activity by quantifying the generation of the 4-methyl umbelliferone fluorescent cleavage product after addition of the methyl umbelliferyl-β-D-galactoside (Sigma #M1633) substrate on a microfluorimeter (365nm for excitation and 450nm for emission). Antiviral activity (IC50) of the test compound is determined by comparing the flourescence obtained in absence of compound to that obtained in the presence of compound.

Assay [3] concerns VZV strain Ellen. As to the kind of experiment: VZV antiviral (ELISA) assay. Format: cell-based. Here is the method:
For the generation of stock VZV to be used in the assay, VZV strain Ellen (ATCC #VR-1367) is used to infect human foreskin fibroblast (HFF) cells at low multiplicity (less than 0.1) and incubated overnight at 37°C in 5% CO2. After the overnight incubation, the mixture of uninfected and VZV-infected HFF infected cells are then harvested and added to each well of 96-well plates (3.5x10^4 cells in 100 µl DMEM supplemented with 2% FBS) which contain test compound or the reference standard drug control (in 100µl DMEM supplemented with 2% FBS per well). These cells are incubated for three days at 37°C in 5% CO2, then fixed for ELISA assay. The primary antibody is murine anti-VZV glycoprotein II monoclonal antibody (Applied Biosystems, Inc. #13-145-100) and the secondary antibody is goat anti-mouse IgG linked to β-galactosidase. Thus the extent of viral replication is determined by assessing β-galactosidase activity by quantifying the generation of the 4-methyl umbelliferone fluorescent cleavage product after addition of the methyl umbelliferyl-β-D-galactoside (Sigma #M1633) substrate on a microfluorimeter (365nm for excitation and 450nm for emission). Antiviral activity (IC50) of the test compound is determined by comparing the flourescence obtained in absence of compound to that obtained in the presence of compound.

Where [4] appears, read: read-out: IC50 ug/ml HCMV, HCMV, human foreskin fibroblasts.
Setting [5] is: Human alphaherpesvirus 3, VZV strain Ellen, HFF cells, ELISA, read-out: IC50 (ug/ml) VZV.
Where [6] appears, read: Human alphaherpesvirus 3, HFF, read-out: IC50 (ug/ml) VZV, VZV strain Ellen, HFF cells, ELISA.

SMILES strings stand for the structures. ≈ marks a conversion by molar mass, not a printed value. Read-outs that look alike come from different tables or passages of the source.

Consider `CN(C)c1cc(CCNC(=S)Nc2ccc(NC(=O)c3ccccc3F)cc2)cc(C(F)(F)F)c1` [Example 653, N-(4-{3-[2-(3-Dimethylamino-5-trifluoromethyl-phenyl)-ethyl]-thioureido}-phenyl)-2-fluoro-benzamide], for which the IC50 in assay [1] (setting [4]) was greater than 0.5 µg/mL; in assay [2] (Vero) it was greater than 10 µg/mL. The matching figures for `O=C(Nc1ccc(NC(=S)NCCSc2ccccc2)cc1)c1ccccc1F` [Example 656, 2-Fluoro-N-{4-[3-(2-phenylsulfanyl-ethyl)-thioureido]-phenyl}-benzamide]: greater than 0.5 µg/mL and 5 µg/mL (≈ 11.7 µM). `O=C(Nc1ccc(NC(=S)NCc2cccc(I)c2)cc1)c1ccccc1F` [Example 661, 2-Fluoro-N-{4-[3-(3-iodo-benzyl)-thioureido]-phenyl}-benzamide]: the IC50 in assay [1] (read-out: IC50 ug/ml HCMV) is greater than 0.5 µg/mL; in assay [2] (HSV- I, Vero cells, ELISA) it was greater than 10 µg/mL.

With `O=C(Nc1ccc(NC(=S)NCCOc2cc(Cl)cc(Cl)c2)cc1)c1ccccc1F` [Example 664, N-(4-{3-[2-(3,5-Dichloro-phenoxy)-ethyl]-thioureido}-phenyl)-2-fluoro-benzamide], the IC50 in assay [1] (setting [4]) was greater than 0.5 µg/mL; in assay [2] (Vero) it was 10 µg/mL (≈ 20.9 µM). In the case of `O=C(Nc1ccc(NC(=S)NCCOc2cccc(Cl)c2)cc1)c1ccccc1F` [Example 666, N-(4-{3-[2-(3-Chloro-phenoxy)-ethyl]-thioureido}-phenyl)-2-fluoro-benzamide], the IC50 in assay [1] (setting [4]) is greater than 0.5 µg/mL; in assay [2] (Vero) it was 10 µg/mL (≈ 22.5 µM).

On to `O=C(Nc1ccc(NC(=S)NCc2cc(C(F)(F)F)ccc2F)cc1)c1ccccc1F` [Example 669, 2-Fluoro-N-{4-[3-(2-fluoro-5-trifluoromethyl-benzyl)-thioureido]-phenyl}-benzamide], for which the IC50 in assay [1] (read-out: IC50 ug/ml HCMV) is greater than 0.5 µg/mL; in assay [2] (HSV- I, Vero cells, ELISA), greater than 10 µg/mL. The matching figures for `O=C(Nc1ccc(NC(=S)NCc2ccc(F)c(F)c2)cc1)c1ccccc1F` [Example 672, N-{4-[3-(3,4-Difluoro-benzyl)-thioureido]-phenyl}-2-fluoro-benzamide]: greater than 0.5 µg/mL and greater than 10 µg/mL. With `Cc1cc(CCNC(=S)Nc2ccc(NC(=O)c3ccccc3F)cc2)ccc1N(C)C` [Example 673, N-(4-{3-[2-(4-Dimethylamino-3-methyl-phenyl)-ethyl]-thioureido}-phenyl)-2-fluoro-benzamide], the IC50 was greater than 0.5 µg/mL in assay [1] (setting [4]) and 7 µg/mL (≈ 15.5 µM) in assay [2] (Vero). Consider `O=C(Nc1ccc(NC(=S)NCc2ccc(F)c(Cl)c2)cc1)c1ccccc1F` [Example 677, N-{4-[3-(3-Chloro-4-fluoro-benzyl)-thioureido]-phenyl}-2-fluoro-benzamide], for which the IC50 is greater than 0.5 µg/mL in assay [1] (setting [4]) and greater than 10 µg/mL in assay [2] (Vero).

Turning to `O=C(Nc1ccc(NC(=S)NCCSc2cccc(Br)c2)cc1)c1ccccc1F` [Example 680, N-(4-{3-[2-(3-Bromo-phenylsulfanyl)-ethyl]-thioureido}-phenyl)-2-fluoro-benzamide], the IC50 in assay [1] (setting [4]) was greater than 0.5 µg/mL; in assay [2] (Vero), greater than 10 µg/mL. The matching figures for `CN1CCN(c2ccc(CNC(=S)Nc3ccc(NC(=O)c4ccccc4F)cc3)cc2C(F)(F)F)CC1` [Example 687, 2-Fluoro-N-(4-{3-[4-(4-methyl-piperazin-1-yl)-3-trifluoromethyl-benzyl]-thioureido}-phenyl)-benzamide]: greater than 0.5 µg/mL and 1.2 µg/mL (≈ 2.2 µM). On to `O=C(Nc1ccc(NC(=S)NCCOc2ccc(Br)cc2)cc1)c1ccccc1F` [Example 695, N-(4-{3-[2-(4-Bromo-phenoxy)-ethyl]-thioureido}-phenyl)-2-fluoro-benzamide], for which the IC50 in assay [1] (setting [4]) was greater than 3 µg/mL; in assay [2] (Vero), greater than 10 µg/mL. As for `O=C(Nc1ccc(NC(=S)NCCOc2ccc(I)cc2)cc1)c1ccccc1F` [Example 696, 2-Fluoro-N-(4-{3-[2-(4-iodo-phenoxy)-ethyl]-thioureido}-phenyl)-benzamide], the IC50 was greater than 3 µg/mL in assay [1] (read-out: IC50 ug/ml HCMV) and 10 µg/mL (≈ 18.7 µM) in assay [2] (HSV- I, Vero cells, ELISA).

On to `O=C(Nc1ccc(NC(=S)NCCc2ccc(Cl)c(Cl)c2)cc1)c1ccccc1F` [Example 719, N-(4-{3-[2-(3,4-Dichloro-phenyl)-ethyl]-thioureido}-phenyl)-2-fluoro-benzamide], for which the IC50 in assay [1] (setting [4]) is greater than 0.5 µg/mL; in assay [2] (Vero) it was greater than 10 µg/mL. Turning to `O=C(Nc1ccc(NC(=S)NCCc2ccccc2F)cc1)c1ccccc1F` [Example 721, 2-Fluoro-N-(4-{3-[2-(2-fluoro-phenyl)-ethyl]-thioureido}-phenyl)-benzamide], the IC50 in assay [2] (HSV- I, Vero cells, ELISA) is greater than 10 µg/mL. Regarding `CC(C)(C)c1ccc(CNC(=S)Nc2ccc(NC(=O)c3ccccc3F)cc2)cc1` [Example 724, N-{4-[3-(4-tert-Butyl-benzyl)-thioureido]-phenyl}-2-fluoro-benzamide], in assay [2] (Vero), the IC50 was greater than 10 µg/mL. Same read-out and setting: in the case of `Cc1cc(C)cc(CNC(=S)Nc2ccc(NC(=O)c3ccccc3F)cc2)c1` [Example 725, N-{4-[3-(3,5-Dimethyl-benzyl)-thioureido]-phenyl}-2-fluoro-benzamide] it was greater than 10 µg/mL; in that of `CC(C)(NC(=S)Nc1ccc(NC(=O)c2ccccc2F)cc1)c1ccccc1` [Example 727, 2-Fluoro-N-{4-[3-(1-methyl-1-phenyl-ethyl)-thioureido]-phenyl}-benzamide], greater than 10 µg/mL. Regarding `CC(NC(=S)Nc1ccc(NC(=O)c2ccccc2F)cc1)c1ccc(C(F)(F)F)cc1F` (centres unmarked) [Example 1106, 2-fluoro-N-(4-{[({1-[2-fluoro-4-(trifluoromethyl)phenyl]ethyl}amino)carbothioyl]amino}phenyl)benzamide], the IC50 in assay [1] (read-out: IC50 ug/ml HCMV) was 1.1 µg/mL (≈ 2.29 µM); in assay [3] (setting [5]), greater than 7.5 µg/mL. Consider `C[C@H](NC(=S)Nc1ccc(NC(=O)c2nccc3ccccc23)cc1)c1ccc(Br)cc1` [Example 1107, Isoquinoline-1-carboxylic acid (4-{3-[(1S)-1-(4-bromo-phenyl)-ethyl]-thioureido}-phenyl)-amide], for which the IC50 turned out to be 8.1 µg/mL (≈ 16 µM) in assay [1] (setting [4]) and 0.05 µg/mL (≈ 0.0989 µM) in assay [3] (setting [6]).

As to `C[C@H](NC(=S)Nc1ccc(NC(=O)c2cc3ccccc3cn2)cc1)c1ccc(Br)cc1` [Example 1108, Isoquinoline-3-carboxylic acid (4-{3-[(1S)-1-(4-bromo-phenyl)-ethyl]-thioureido}-phenyl)-amide], the IC50 in assay [1] (setting [4]) amounted to 2.3 µg/mL (≈ 4.55 µM); in assay [3] (setting [6]), 0.05 µg/mL (≈ 0.0989 µM). With `C[C@H](NC(=S)Nc1ccc(NC(=O)c2nccc3ccccc23)cc1)c1ccc(Cl)cc1` [Example 1109, Isoquinoline-1-carboxylic acid (4-{3-[(1S)-1-(4-chloro-phenyl)-ethyl]-thioureido) -phenyl)-amide], the IC50 in assay [1] (read-out: IC50 ug/ml HCMV) amounted to 4.4 µg/mL (≈ 9.54 µM); in assay [3] (setting [5]) it was 0.03 µg/mL (≈ 0.0651 µM). The matching figures for `CC(NC(=S)Nc1ccc(NC(=O)c2nccc3ccccc23)cc1)c1ccc(F)cc1` (centres unmarked) [Example 1110, Isoquinoline-1-carboxylic acid (4-{3-[1-(4-fluoro-phenyl)-ethyl]-thioureido}-phenyl)-amide]: 3.3 µg/mL (≈ 7.42 µM) and 0.05 µg/mL (≈ 0.112 µM). Turning to `C[C@H](NC(=S)Nc1ccc(NC(=O)c2nccc3ccccc23)cc1)c1ccc(C#N)cc1` [Example 1111], the IC50 was greater than 10 µg/mL in assay [1] (setting [4]) and 0.1 µg/mL (≈ 0.221 µM) in assay [3] (Human alphaherpesvirus 3, HFF, read-out: IC50 (ug/ml) VZV).
